{
  "source": "patent US5623080A",
  "about": "“Fluorone and pyronin Y derivatives” (Spectra Group Limited, Inc., priority 1995, dated 1997)",
  "key": {"[1]": {"assay": "double bond conversion (C=C% Conversion) by FTIR", "conditions": "DIDMA", "description": "(§1) To a resin formulation consisting of 15 parts urethane diacrylate, 15 parts DPHPA, 20 parts TPGDA and 40 parts TMPTA was added DIDMA, initiator and (4-octyloxyphenyl)phenyliodonium hexafluoroantimonate (OPPI). The samples were coated to a thickness of 15 microns and exposed to a 75 W tungsten halogen dental lamp (focused through an optical fiber) at a distance of 0.75 inch at which the Light intensity was about 0.40 W/cm^2. The molar ratios are indicative of the amounts of fluorone to onium salt to amine coinitiator. The double bond conversion was determined by FTIR spectroscopy. The pencil hardness of a given test sample is measured by holding a pencil at a 45° angle to the sample and drawing across it towards the person testing it. Using the pencils in an order from softest to hardest, the first pencil that scratches the surface is assigned as the pencil hardness of the sample. The pencil hardness scale is as follows from softest to hardest: 4B, 3B, 2B, B, HB, H, 2H, 3H, 4H, 6H. For instance, if a 2H pencil is the first pencil to scratch the surface then the pencil hardness is 2H.\n(§2) The foregoing study was repeated using 100% butanediol diacrylate, and 100% polyethylene glycol diacrylate (MW=400)(PEGA 400)."}, "[2]": {"assay": "double bond conversion (C=C% Conversion) by FTIR", "conditions": "DIDMA", "description": "as §1, §2", "remark": "listed apart in the source"}, "[3]": {"assay": "absorption wavelength (λmax) and extinction (ε)", "format": "physicochemical", "conditions": "EtOH, Table 1"}},
  "data": [
    {"compound": "CCCCOc1ccc2cc3cc(I)c(=O)c(I)c-3oc2c1", "note": "[DIBF, 5,7-diiodo-3-butoxy-6-fluorone]", "values": [
      {"measurement": "C=C% Conversion", "setting": "[1]; 0.05 wt %, (1:0:60), 60 sec", "value": 50, "unit": "%"},
      {"measurement": "C=C% Conversion", "setting": "[1]; 0.05 wt %, (1:2:3), 60 sec", "value": 61, "unit": "%"},
      {"measurement": "C=C% Conversion", "setting": "[1]; 0.10 wt %, (1:2:3), 60 sec", "value": 90, "unit": "%"},
      {"measurement": "C=C% Conversion", "setting": "[1]; 0.15 wt %, (1:2:3), 10 sec", "value": 60, "unit": "%"},
      {"measurement": "C=C% Conversion", "setting": "[1]; 0.15 wt %, (1:2:3), 30 sec", "value": 84, "unit": "%"},
      {"measurement": "C=C% Conversion", "setting": "[1]; 0.15 wt %, (1:2:3), 60 sec", "value": 90, "unit": "%"},
      {"measurement": "C=C% Conversion", "setting": "[2]; 0.05 wt %, (1:0:60), 30 sec", "value": 30, "unit": "%"},
      {"measurement": "C=C% Conversion", "setting": "[2]; 0.05 wt %, (1:2:3), 30 sec", "value": 49, "unit": "%"},
      {"measurement": "C=C% Conversion", "setting": "[2]; 0.10 wt %, (1:2:3), 30 sec", "value": 56, "unit": "%"},
      {"measurement": "C=C% Conversion", "setting": "[2]; 0.10 wt %, (1:2:3), 60 sec", "value": 56, "unit": "%"},
      {"measurement": "C=C% Conversion", "setting": "[2]; 0.15 wt %, (1:3:3), 30 sec", "value": 58, "unit": "%"},
      {"measurement": "λmax in EtOH (first value)", "setting": "[3]", "value": 470},
      {"measurement": "ε (first value)", "setting": "[3]; at first λmax, in M-1cm-1 (unit assumed)", "value": "30,200"}
    ]}
  ]
}
